The subject of data set [1] is dexamethasone-induced mouse osteoporosis model. As to the kind of experiment: Anti-osteoporotic effect, femur micro-CT and histology. It counts as in vivo, C57BL/6 mice. The following applies: 4 weeks. As to the method:
(§1) To determine the anabolic effect of orally administered TRP/LDA/DA-DM on GC-induced osteoporosis, 9-week-old female C57BL/6 mice were randomly divided into 6 groups (n=10 per group): Control group (normal) (SC injection of normal saline once daily); Control group (DEX) (SC injection of 0.022 mg/kg DEX once daily); TRP-SC (0.02) (SC injection of 0.02 mg/kg TRP dissolved in physiological saline containing 0.022 mg/kg DEX once daily); TRP-oral (0.4) (SC injection of 0.022 mg/kg DEX dissolved in water with 0.4 mg/kg TRP orally once daily); RP (1:5:7)-15 (0.4) (once daily oral administration of TRP (1:5:7)-15 equivalent to 0.4 mg/kg TRP with SC injection of 0.022 mg/kg DEX); and TRP (1:5:7)-15 (0.8) (once daily oral administration of TRP (1:5:7)-15 equivalent to 0.8 mg/kg TRP with SC injection of 0.022 mg/kg DEX). Blood samples were collected for biochemical analysis 4 weeks after treatment.
In addition, femurs from 10 mice in each group were collected and fixed in 4% paraformaldehyde for bone density and histomorphometric analysis. The trabecular bone microstructure of the left femur was investigated using a Quantum GX micro-computed tomography (micro-CT) imaging system (PerkinElmer, Hopkinton, MA, USA) located at the Korea Institute of Basic Science (Gwangju, Korea). X-ray source settings included a voltage of 90 kV and a current of 88 uA, with a field of view of 10 mm (voxel size, 20 μm; scan time, 4 min). Three-dimensional (3D) images were obtained with 3D Viewer, an existing software in Quantum GX, and the resolution was set to 4.5 μm. After scanning, the structural parameters of the trabecular bone were analyzed using Analyze 12.0 software (Analyze Direct, Overland Park, KS, USA).
For histological observations, formalin-fixed femurs were […] in 10% ethylenediaminetetraacetic acid (EDTA) and dehydrated by passing through a graded ethanol series. Calcified femurs were then embedded in paraffin wax, cut into 5-μm-thick sections, and stained with hematoxylin and eosin (H&E). Histological sections were observed under an optical microscope (Bx41; Olympus, Tokyo, Japan), and photographs were taken focusing on the central portion of the growth plate.

The test system is the same in data set [2]. As to the kind of experiment: Serum bone formation and resorption markers and calcium. The data set is classed as in vivo, C57BL/6 mice. As to the method: as §1
After the final treatment once daily, serum samples were collected from mouse whole blood by centrifugation at 2000×g for 20 minutes. Then, the serum levels of osteocalcin, procollagen I N-terminal pro-peptide (PINP), and C-terminal cross-linked telopeptide of type I collagen (CTx) in each sample were determined according to the manufacturer's instructions using the Mouse Osteocalcin ELISA kit (LifeSpan BioSciences, Inc., Seattle, WA, USA), Rat/Mouse PINP EIA kit (Immunodiagnostic Systems Holdings Ltd., Tyne & Wear, UK), and RatLaps™ CTx-I EIA (Immunodiagnostic Systems Holdings Ltd.) was used to confirm each. In addition, the serum calcium level was confirmed through a colorimetric assay at 560 nm (Sigma-Aldrich).

Data set [3] in a line: Particle size, PDI and zeta potential (dynamic light scattering) and TEM. The data set is classed as physicochemical. The following applies: dispersed in deionized water, 25° C. As to the method: The characterization of the secondary structure of RP/LDA/DA-DM was confirmed by […] of TRP, TRP-DM, TRP/LDA/DA, and TRP/LDA/DA-DM, using 10 µM of the complex in water at 20° C. Measurements were made in the 180 to 260 nm range on a JASCO spectropolarimeter (Jasco Inc., Easton, MD, USA) using a 10 mm cuvette. All spectra were background-corrected and calculated in units of average residual ellipticity. This represents an average of 10 scan values. The optimized TRP/LDA/DA-DM [i.e., TRP (1:5:7)-15] was also characterized for average particle size, polydispersity index (PDI), and zeta potential using a dynamic light scattering analyzer (Malvern Zetasizer Nano ZS90; Malvern Instruments, Malvern, UK) at 25° C. TRP/LDA/DA-DM was dispersed in deionized water and sonicated for 1 min to minimize multi-scattering effects. In addition, morphological evaluation of the TRP formulation was performed by transmission electron microscopy (TEM). The diluted dispersion was placed on a copper grid, excess fluid was removed using filter paper, and negative staining was performed with a 2% aqueous solution of phosphortungstic acid. The prepared grids were observed by high-resolution TEM (HRTEM; JEM-200; JEOL, Tokyo, Japan).

The nature of data set [4]: Oral absorption: plasma TRP pharmacokinetics. The settings on record: SD, mouse; for AUC(0-inf) / AUC(0-t) / Cmax / Tmax / half-life: single dose, n=5. It counts as in vivo, SD mice. As for the experimental part:
The oral absorption of TRP/LDA/DA-DM in mice was evaluated by determining the effectiveness of electrostatic complexes of TRP with LDA and DA and micellar formulations using DM. After fasting overnight, SD mice were orally administered 400 μL of TRP-Oral (1.6) (1.6 mg/kg TRP dissolved in water) or TRP (1:5:7)-15 (1.6) (equivalent to 1.6 mg/kg TRP). In addition, animals were injected subcutaneously with 200 μL of TRP-SC (0.04) (0.04 mg/kg TRP dissolved in physiological saline) to evaluate the relative oral bioavailability. Blood samples (250 μL) were collected in heparinized tubes (lithium heparin) from a cannulated femoral vein at specified time points (0, 0.167, 0.5, 1, 1.5, 2, 3, 4, 6 hours). Finally, plasma was separated by centrifugation (2500×g, 15 min, 4° C.) and stored at […] until analysis.
The plasma drug concentration of each sample was determined by UPLC-MS/MS. To construct a standard calibration curve, 180 μL of blank plasma was transferred to a tube, and then 10 μL of TRP at concentrations of 100, 50, 25, 10, 5, 2.5, 1, and 0 (blank) ng/ml was added to the blank plasma. To measure plasma drug concentrations after drug administration, 180 μL of mouse plasma samples at different time points were transferred to another tube, and then 10 μL hPTH (1-38) aqueous solution (100 ng/ml) (as an internal standard [IS]) was added to the TRP and blank plasma or drug-administered plasma samples. The samples were then precipitated by adding 200 μL acetonitrile containing 5% ammonium hydroxide. The precipitated sample was further diluted with 1 mL of water and centrifuged at 4° C. for 15 min at 4,000 rpm. The supernatant was extracted using the solid phase extraction (SPE) method and an Oasis® HLB uElution 96-well plate (Waters Corporation, Milford, MA, USA). Briefly, a 96-well plate was conditioned with 200 μL of methanol and then equilibrated with 200 μL of water. Four 350 μL aliquots of the supernatant were then added to each Oasis HLB uElution well. After the addition of standards or samples, the wells were washed with 200 μL of water containing 5% methanol. Then, TRP and IS were eluted with 25 μL of acetonitrile:water:trifluoroethanol:trifluoroacetic acid (60:34:5:1, v/v/v/v) mixture in two sequential aliquots. After further dilution of the eluate with 50 μL of water, 10 μL was injected into a UPLC system (Waters ACQUITY UPLC, Waters Corporation) equipped with an ACQUITY UPLC Peptide BEH C18 column (2.1×50 mm, 1.7 μm, 300 Å, Waters Corporation). The sample was placed at a low temperature of 6° C., and the column temperature was maintained at 60° C. during the analysis. Mobile phase A is composed of 0.5% (v/v) formic acid in water, and mobile phase B is composed of acetonitrile. TRP and IS were eluted at a gradient flow rate of 0.3 mL/min, where mobile phase A was equal to 85% (initial), 85% (0.8 min), 70% (1.2 min), 70% (2.2 min), 65% (2.7 min), 10% (3.0 min), 10% (4.0 min), 85% (5 min), and 85% (5 min). For ionization, a mass spectrometer (Xevo™ TO-S; Waters Corporation) was used in positive ion multiple reaction monitoring mode with electrospray voltage, source temperature, desolvation temperature, and desolvation gas flow rate of 3.0 kV, 150° C., 500° C., and 800 L/h, respectively. Quantification was performed with the transition of m/z 589.40→656.40 at 45 V cone voltage and 13 eV collision energy for TRP and m/z 744.20→855.50 at 20 V cone voltage and 20 eV collision energy for IS.

The mark [5] stands for this setting: SC 0.022 mg/kg DEX once daily, 4 weeks.
Where [6] appears, read: SC 0.02 mg/kg TRP once daily, 4 weeks.

From patent US20250367266A1, “ORAL PHARMACEUTICAL COMPOSITION FOR PREVENTION OR TREATMENT OF OSTEOPOROSIS CONTAINING TERIPARATIDE AND METHOD FOR PREPARATION THEREOF” (ICURE BNP CO., LTD., priority 2022, published 2025) come the findings set out here.

Like-named read-outs stand apart in the source and are kept apart here.

For `C[C@@H]1C[C@H]2[C@@H]3CCC4=CC(=O)C=C[C@]4(C)[C@@]3(F)[C@@H](O)C[C@]2(C)[C@@]1(O)C(=O)CO` [DEX, dexamethasone], in data set [1] (SC 0.022 mg/kg DEX once daily), the “BMD of the total femur” value was found to be 123 ± 7.92 mg/mL, the “SMI change compared to the control (normal) group” value is listed as −21.1% and the “Tb.Th change compared to the control (normal) group” value is on record as −7.98%. In data set [2] (setting [5]), the “serum CTx increase compared to the control (normal) group” value is given as 48.9% and the “serum PINP reduction compared to the control (normal) group” value was found to be 26.0%.
As for `CCCCCCCCCCCCO[C@@H]1O[C@H](CO)[C@@H](O[C@H]2O[C@H](CO)[C@@H](O)[C@H](O)[C@H]2O)[C@H](O)[C@H]1O` [DM, n-dodecyl-β-D-maltoside], in data set [3], the Particle size is reported as 7.43 nm, the “Polydispersity index (PDI)” value stood at 0.045 and the Zeta potential was −0.260 mV.
As for `CC[C@H](C)[C@H](NC(=O)[C@H](CCC(=O)O)NC(=O)[C@H](CO)NC(=O)[C@@H](NC(=O)[C@@H](N)CO)C(C)C)C(=O)N[C@@H](CCC(N)=O)C(=O)N[C@@H](CC(C)C)C(=O)N[C@@H](CCSC)C(=O)N[C@@H](Cc1cnc[nH]1)C(=O)N[C@@H](CC(N)=O)C(=O)N[C@@H](CC(C)C)C(=O)NCC(=O)N[C@@H](CCCCN)C(=O)N[C@@H](Cc1cnc[nH]1)C(=O)N[C@@H](CC(C)C)C(=O)N[C@@H](CC(N)=O)C(=O)N[C@@H](CO)C(=O)N[C@@H](CCSC)C(=O)N[C@@H](CCC(=O)O)C(=O)N[C@@H](CCCN=C(N)N)C(=O)N[C@H](C(=O)N[C@@H](CCC(=O)O)C(=O)N[C@@H](Cc1c[nH]c2ccccc12)C(=O)N[C@@H](CC(C)C)C(=O)N[C@@H](CCCN=C(N)N)C(=O)N[C@@H](CCCCN)C(=O)N[C@@H](CCCCN)C(=O)N[C@@H](CC(C)C)C(=O)N[C@@H](CCC(N)=O)C(=O)N[C@@H](CC(=O)O)C(=O)N[C@H](C(=O)N[C@@H](Cc1cnc[nH]1)C(=O)N[C@@H](CC(N)=O)C(=O)N[C@@H](Cc1ccccc1)C(=O)O)C(C)C)C(C)C` [TRP, Human PTH (1-34) acetate], in data set [4] (Oral, 1.6 mg/kg TRP, relative to SC 0.04 mg/kg), the bioavailability (usually the share of a dose that reaches the circulation, judged against a reference dose that is usually intravenous) was 0.559 ± 0.293%. In addition, in data set [4] (Oral, 1.6 mg/kg TRP), the AUC(0-inf) (in general, the area under the concentration-time curve extrapolated to infinity) stood at 0.296 ± 0.0189 ng·h/mL; the AUC(0-t) – broadly, exposure summed from dosing to a finite time, without extrapolation to infinity – was 0.135 ± 0.0704 ng·h/mL; the concentration peaked (Cmax) at 0.155 ± 0.0572 ng/mL; the time of peak concentration (Tmax) (commonly the time from dosing to the highest level) was 78 ± 16.2 min. Moreover, the half-life – broadly, the time needed for the level to fall by half in the phase considered – in data set [4] (Oral, 1.6 mg/kg TRP) was 43.2 ± 10.8 min. In addition, in data set [4] (SC, 0.04 mg/kg TRP (reference), read-out: Relative bioavailability), the bioavailability worked out at 100%. Moreover, in data set [4] (SC, 0.04 mg/kg TRP), the area under the curve AUC(0-inf) is 0.752 ± 0.0269 ng·h/mL; the AUC(0-t) came out at 0.601 ± 0.12 ng·h/mL; the peak concentration (Cmax) (in general, the peak of the concentration-time curve) was 0.807 ± 0.135 ng/mL; the time of peak concentration (Tmax) is 30 min. This compound showed a half-life in data set [4] (SC, 0.04 mg/kg TRP) of 24 min. Besides, in data set [1] (SC 0.02 or oral 0.4 and 0.8 mg/kg TRP, versus control (DEX) and TRP-Oral (0.4)), the “trabecular bone microarchitecture, 3D micro-CT image of the femur” value is “denser trabecular bone microarchitecture”. Also, in data set [1] (SC 0.02 or oral 0.4 or 0.8 mg/kg TRP, versus control (DEX) and TRP-Oral (0.4)), the “trabecular bone, H&E-stained histology of distal femora” value was “increased structural integrity and denser trabecular bone microarchitecture”. In data set [1] (SC 0.02 mg/kg TRP once daily), the “BMD higher than the DEX group” value is given as 29.4%, the “BV/TV higher than the control (DEX) group” value came out at 13.2%, the “Tb. Sp lower than the control (DEX) group” value is listed as 17.4% and the “Tb.N higher than the control (DEX) group” value was found to be 2.8%. Besides, in data set [1] (SC 0.02 mg/kg TRP once daily), the “Tb.Th higher than the control (DEX) group” value was 45.2%. Moreover, the “BMD higher than the control (DEX) group” value in data set [1] (oral 0.4 mg/kg TRP once daily) is on record as “did not produce a significant improvement”. For the same compound, in data set [2] (setting [6]), the “PINP higher compared to the control (DEX) group” value is 1.19 times, the “serum osteocalcin level higher than TRP-oral (0.4) group” value was 9.68%, the “serum osteocalcin level higher than control group (DEX)” value came to 28.2% and the “serum osteocalcin level higher than control group (normal)” value is on record as 18.2%. Besides, the “serum calcium levels, maximum increase compared to the control (normal) group” value in data set [2] (SC 0.02 mg/kg TRP, at 6 hours, day 28) was 21.4%. Moreover, in data set [2] (oral 0.4 mg/kg TRP once daily, 4 weeks), the “PINP secretion increase compared to DEX-treated mice only” value is given as “not recovered”.
